Assay results as given in US9434728B1, “Nitrogen containing compounds and their use” (WOCKHARDT LIMITED, priority 2013, dated 2016).
Converted amounts (≈) assume the structure as drawn.

Columns and labels:
Assay type in all cases: cell-based
K. pneumoniae (H521) = assay: Antibacterial activity, agar dilution MIC (CLSI); settings: Klebsiella pneumoniae, ESBL KPC
Procedure: (§1) The biological activity of representative compounds according to the invention against various bacterial strains was investigated. In a typical study, overnight grown bacterial cultures were diluted appropriately and inoculated on the agar media containing doubling dilutions of the test compounds. Observations for growth or no growth was performed after 16-20 hours of incubation at 35±2° C. in the ambient air. The overall procedure was performed as per Clinical and Laboratory Standards Institute (CLSI) recommendations (Clinical and Laboratory Standards Institute (CLSI), Performance Standards for Antimicrobial Susceptibility Testing, 20th Informational Supplement, M 100-S20, Volume 30, No. 1, 2010). […] The Compound (XI), which is the free zwitterionic form of Compound (X), was also studied for the antibacterial activity profile.

E. coli (NCTC 13353) = assay: Antibacterial activity, agar dilution MIC (CLSI); settings: Escherichia coli, NCTC13353, ESBL CTXM-15
Procedure: as §1

K. pneumoniae (S48) = assay: Antibacterial activity, agar dilution MIC (CLSI); settings: Klebsiella pneumoniae, ESBL NDM, SHV
Procedure: as §1

P. aeruginosa (MBL18) = assay: Antibacterial activity, agar dilution MIC (CLSI); settings: Pseudomonas aeruginosa, ESBL VIM
Procedure: as §1

E. coli (NCTC 13352) = assay: Antibacterial activity, agar dilution MIC (CLSI); settings: Escherichia coli, NCTC13352, ESBL TEM 10
Procedure: as §1

E. coli (7MP) = assay: Antibacterial activity, agar dilution MIC (CLSI); settings: Escherichia coli, ESBL SHV, CMY
Procedure: as §1

K. pneumoniae J101 = assay: Antibacterial activity in combination with Ceftazidime, agar dilution MIC; settings: Klebsiella pneumoniae; agent alone; K. pneumoniae J101, ESBL TEM-1, SHV-12, OMP
Procedure: as §1
(§2) The antibacterial activity of the Compound (XI) was also studied in combination with other beta-lactam antibacterial agents. […] The antibacterial activity of the combination of Compound (XI) (4 μg/ml) and Ceftazidime was compared with (i) combination of Cetftazidime and Avibactam (4 μg/ml); and (ii) Imipenem alone.

[1] = tested on: K. pneumoniae ATCC 700603; assay: as above; settings: Klebsiella pneumoniae, ATCC700603; agent alone; K. pneumoniae ATCC 700603, ESBL SHV-18
Procedure: as §1, §2

K. pneumoniae J102 = assay: as above; settings: Klebsiella pneumoniae; agent alone; K. pneumoniae J102, ESBL TEM-1, SHV-5, OMP
Procedure: as §1, §2

E. coli H483 = assay: as above; settings: Escherichia coli; agent alone; E. coli H483, ESBL CMY-2
Procedure: as §1, §2

[2] = tested on: resistant ESBL strains of K. pneumoniae, E. coli and P. aeruginosa; assay: Antibacterial activity profile
Procedure: as §1

| SMILES | MIC (K. pneumoniae (H521)) [µg/mL] | MIC (E. coli (NCTC 13353)) [µg/mL] | MIC (K. pneumoniae (S48)) [µg/mL] | MIC (P. aeruginosa (MBL18)) [µg/mL] | MIC (E. coli (NCTC 13352)) [µg/mL] | MIC (E. coli (7MP)) [µg/mL] | MIC (K. pneumoniae J101) [µg/mL] | MIC [1] [µg/mL] | MIC (K. pneumoniae J102) [µg/mL] | MIC (E. coli H483) [µg/mL] | antibacterial activity (in words) [2] |
| --- | --- | --- | --- | --- | --- | --- | --- | --- | --- | --- | --- |
| CO/N=C(\C(=O)N[C@@H]1C(=O)N2C(C(=O)[O-])=C(C[N+]3(C)CCCC3)CS[C@H]12)c1csc(N)n1 [Cefepime] | > 32 | > 32 | > 32 | > 32 | 2 (≈ 4.16 µM) | 16 (≈ 33.3 µM) |  |  |  |  |  |
| CC(C)(O/N=C(\C(=O)N[C@@H]1C(=O)N2C(C(=O)[O-])=C(C[n+]3ccccc3)CS[C@H]12)c1csc(N)n1)C(=O)O [Ceftazidime] | > 32 | > 32 | > 32 | > 32 | > 32 | > 32 | > 32 | 16 | > 32 | > 32 |  |
| NC[C@@H]1CC[C@@H]2CN1C(=O)N2OS(=O)(=O)O [Compound (XI), (2S, 5R)-6-sulfooxy-2-(aminomethyl)-7-oxo-1,6-diaza-bicyclo[3.2.1]octane] | 1 (≈ 3.98 µM) | 1 (≈ 3.98 µM) | 1 (≈ 3.98 µM) | 8 (≈ 31.8 µM) | 2 (≈ 7.96 µM) | 4 (≈ 15.9 µM) |  |  |  |  | good antibacterial activity |
| C[C@@H](O)[C@H]1C(=O)N2C(C(=O)O)=C(SCCN=CN)C[C@H]12 [Imipenem] | 16 (≈ 53.4 µM) | 0.25 (≈ 0.835 µM) | 16 (≈ 53.4 µM) | 16 (≈ 53.4 µM) | 0.25 (≈ 0.835 µM) | 1 (≈ 3.34 µM) | 2 | 0.12 | 8 | 0.25 |  |
